From US20240410879A1, “NEMATODE-SEALED CAPSULE, METHOD FOR PRODUCING NEMATODE-SEALED CAPSULE, AND USE OF NEMATODE-SEALED CAPSULE” (NATIONAL INSTITUTES FOR QUANTUM SCIENCE AND TECHNOLOGY, priority 2021, published 2024)

Tests used:
[1] = tested on: C. elegans; assay: Chemotaxis assay to volatile substance on plate A3, conventional nematode supply method (Comparative Example 2); type: in vivo, Caenorhabditis elegans; settings: mean of three assays, FIG. 20
Procedure: Assuming that the total number of nematodes caught in the two left fall-in cavities filled with the test solution was N1 and the total number of nematodes caught in the two right fall-in cavities filled with the control buffer solution was N2, a value obtained according to the following formula was defined as a chemotaxis index (C.I.). Then, the response was evaluated. Chemotaxis index (C. I.)=(N1−N2)/(N1+N2). As Comparative Example, evaluation of response of nematodes was carried out on the basis of a conventionally-known method for supplying nematodes. Used was a plate A3 which was identical to that used in Example 10 and in which two sets of two fall-in cavities were formed on left and right sides in symmetrical positions. A test solution was diluted solutions of diacetyl at two different concentrations as in Example 10. Note that the above dilution was conducted with use of a buffer solution, which served as a control. A nematode liquid containing nematodes having been washed in advance with wash buffer was dropped onto the center of the nematode assay plate, and a liquid component was wiped out with a paper wiper. Then, the nematodes were released on the plate. The plate was covered with a lid and sealed with a paraffin film. […] Thereafter, the number of nematodes caught in the fall-in cavities was counted.

[2] = tested on: C. elegans; assay: Chemotaxis assay to volatile substance on nematode trap plate A3, nematodes supplied from nematode-encapsulated capsule (Example 10); type: in vivo, Caenorhabditis elegans; settings: capsule supply, mean of two assays, FIG. 19
Procedure: An assay for evaluating response of nematodes to a volatile substance was conducted with use of diacetyl (having a molarity of 11.5 M at 15° C.), which is a kind of volatile substance, and diluted solutions prepared by diluting the diacetyl by two different dilution factors of 10 and 10^5. Note that the assay method was a method using a nematode trap plate. […]
Next, several nematode-encapsulated capsules in which nematode eggs were encapsulated and grown to adult nematodes were each picked with a tip of a micropipette chip, so that an outer phase membrane was broken. […] Thereafter, the number of nematodes caught in the fall-in cavities was counted.
Assuming that the total number of nematodes caught in the two left fall-in cavities filled with the test solution was N1 and the total number of nematodes caught in the two right fall-in cavities filled with the control buffer solution was N2, a value obtained according to the following formula was defined as a chemotaxis index (C.I.). Then, the response was evaluated. […]

[3] = tested on: C. elegans; assay: Hatching inhibitor (FUdR) treatment of adult nematodes: hatching of laid eggs on culture plate and in capsule; type: in vivo, Caenorhabditis elegans
Procedure: A dose of a chemical agent required to make all eggs laid by a generation treated with the chemical agent unable to hatch varies depending on, for example, the type, the developmental stage or the sex of the nematode, a type of the chemical agent, or a treatment (exposure) time. For example, in a case where an FUdR solution is added to the culture plate and a nematode which is an adult hermaphrodite of C. elegans prior to laying eggs is exposed to the FUdR solution for a day, a sterilization dose at which the hatching rate of the next generation becomes 0% is not less than 0.5 mg/mL. Exposure of the adult nematode prior to laying eggs to the chemical agent of a dose lower than the sterilization dose allows for making adjustment so that only a certain percentage of eggs hatch.
The nematodes were cultured on the plate to which E. coli had been applied, until the nematodes became adult nematodes (before start of egg laying) on the third day after hatching. FUdR solution was added to this nematode culture plate, and the nematodes were cultured for another day. The FUdR solution was prepared by dissolving 5 mg of FUdR powder in 10 mL of sterile ultrapure water and stirring.
Adult nematodes on the fourth day after hatching which had been exposed to a hatching inhibitor for one day were collected together with E. coli from the culture plate with use of the platinum wire picker. Then, the nematodes were dropped in the aqueous sol which was the same as that prepared in Example 1, so that a sterilized adult nematode sol was prepared. Next, a micropipette was used to suck out the nematode sol. The nematode sol was then dropped in a calcium lactate solution which filled a plastic dish, and immersed in the calcium lactate solution for approximately 5 minutes. The hatching inhibitor-treated nematode-encapsulated capsule in which the adult nematodes that had been exposed to the hatching inhibitor and E. coli that would be food were encapsulated. At the end, a sterilized-nematode-encapsulated capsule was taken out from the calcium lactate solution and an outer phase membrane of this capsule was washed with ultrapure water.
An image of a spherical capsule in which approximately 10 adult nematodes on the fourth day after hatching and having undergone a hatching inhibition treatment by exposure to FUdR were encapsulated was captured from above with use of a digital camera attached to a microscope and the spherical capsule was observed, every 24 hours (every day) from immediately after the production of the spherical capsule. […] After one day and also after two days, it was possible to observe a state in which the adult nematodes moved inside the capsule. […]

[4] = tested on: C. elegans; settings: in vivo
From the text: Next, the nematodes having been grown in the nematode-encapsulated capsule were taken out, and locomotion of the nematodes was observed. As in Example 4, a hatching inhibitor-treated nematode-encapsulated capsule obtained two days after production of the capsule was transferred to a plate A1 with a tweezer, and the capsule was picked a plurality of times with a sterile toothpick, so that the inside of the capsule was exposed.

[5] = 10-fold diluted solution of diacetyl
[6] = 10^5-fold diluted solution of diacetyl

| Compound | Chemotaxis index (C.I.) [1, 5] | Chemotaxis index (C.I.) [1, 6] | Chemotaxis index (C.I.) [2, 5] | Chemotaxis index (C.I.) [2, 6] | hatching of eggs laid on culture plate to which FUdR was added ([3]; FUdR solution 5 mg in 10 mL added to culture plate, adults from third day after hatching cultured another day) | sterilization dose at which the hatching rate of the next generation becomes 0% ([3]; FUdR solution added to culture plate, adult hermaphrodite of C. elegans prior to laying eggs exposed for a day) | hatching of eggs laid in capsule by adult nematodes exposed to FUdR ([3]; approximately 10 adults on fourth day after hatching, exposed one day on plate, encapsulated, observed up to two days after production) | hatching result with nematodes cultured for one day in culture solution containing FUdR ([3]; culture solution containing FUdR instead of culture plate, nematode-encapsulated capsule) | locomotion of adult nematodes escaped from capsule [4] |
| --- | --- | --- | --- | --- | --- | --- | --- | --- | --- |
| CC(=O)C(C)=O [diacetyl] | negative | positive | negative | positive |  |  |  |  |  |
| O=c1[nH]c(=O)n([C@H]2C[C@H](O)[C@@H](CO)O2)cc1F [FUdR, 5-Fluoro-2′-deoxyuridine] |  |  |  |  | the eggs did not hatch | not less than 0.5 mg/mL | did not hatch, and no larvae were observed | a result similar to that obtained by culturing on the culture plate to which the FUdR solution was added could be obtained | No remarkable abnormality in locomotion was observed |
